Data reported in US8440710B2, “HSL inhibitors useful in the treatment of diabetes” (Hoffmann-La Roche Inc., priority 2009, dated 2013).

Target: T1, human HSL (Homo sapiens, UniProt Q05469)
T1 construct: generate a full length human HSL ORF with a 3′-His6 tag; made in house; host or cells: High 5 insect cells (baculovirus, pFast-BAC)
T1 sequence (Q05469 1-1076): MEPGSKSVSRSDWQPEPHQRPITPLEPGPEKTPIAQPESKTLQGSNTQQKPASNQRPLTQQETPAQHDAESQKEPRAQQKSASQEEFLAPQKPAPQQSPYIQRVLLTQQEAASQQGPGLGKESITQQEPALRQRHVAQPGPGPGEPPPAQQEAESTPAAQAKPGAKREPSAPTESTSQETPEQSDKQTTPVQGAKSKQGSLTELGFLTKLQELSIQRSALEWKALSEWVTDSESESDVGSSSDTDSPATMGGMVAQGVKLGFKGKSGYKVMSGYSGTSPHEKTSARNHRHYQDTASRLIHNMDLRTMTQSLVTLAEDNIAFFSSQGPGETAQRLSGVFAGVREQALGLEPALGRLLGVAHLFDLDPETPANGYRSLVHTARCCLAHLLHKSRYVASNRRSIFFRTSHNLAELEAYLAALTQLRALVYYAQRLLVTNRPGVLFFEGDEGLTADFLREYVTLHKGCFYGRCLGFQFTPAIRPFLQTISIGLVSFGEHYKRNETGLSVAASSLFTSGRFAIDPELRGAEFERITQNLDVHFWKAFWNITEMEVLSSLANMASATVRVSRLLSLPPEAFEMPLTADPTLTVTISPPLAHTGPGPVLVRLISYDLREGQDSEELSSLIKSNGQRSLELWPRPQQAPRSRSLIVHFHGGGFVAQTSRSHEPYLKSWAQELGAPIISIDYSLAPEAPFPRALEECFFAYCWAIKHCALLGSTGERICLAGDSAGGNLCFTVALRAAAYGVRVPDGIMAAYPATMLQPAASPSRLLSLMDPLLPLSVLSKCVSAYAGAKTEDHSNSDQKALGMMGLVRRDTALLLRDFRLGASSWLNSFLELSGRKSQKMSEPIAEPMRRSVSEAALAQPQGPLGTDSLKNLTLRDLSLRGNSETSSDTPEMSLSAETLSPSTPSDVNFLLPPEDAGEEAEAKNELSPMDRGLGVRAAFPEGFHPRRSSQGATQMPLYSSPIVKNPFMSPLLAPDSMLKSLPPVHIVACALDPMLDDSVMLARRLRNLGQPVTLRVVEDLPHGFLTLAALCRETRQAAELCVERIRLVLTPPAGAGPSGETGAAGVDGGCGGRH
Assay: Human Hormone-Sensitive Lipase (HSL) enzyme inhibition assay (colorimetric, DMPT substrate)
Assay type: biochemical
Settings: human full length HSL-His6, 2,3-dimercapto-1-propanol tributyrate substrate, 37° C. 20 minutes, absorbance at 405 nm; read-out: HSL hum IC50
How it was run: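 Full-length human HSL with C-terminal His6, expressed in baculovirus-infected High 5 cells and Ni-NTA purified, was added (15 ug/ml stock) to 1.5 mM DMPT in 100 mM MOPS pH 7.2, 0.2 mg/ml fatty acid-free BSA containing compound. After 20 min at 37 °C, DTNB with SDS/Triton X-100 was added; A405 read after 15 min at RT.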

Row | Structure (SMILES) | IC50
1 | O=C1N(c2ccc(OCC(F)(F)F)cc2)CC[C@]12CC[C@](O)(COc1ccccn1)CC2 [Example 278, (5α,8β)-8-Hydroxy-8-(pyridin-2-yloxymethyl)-2-[4-(2,2,2-trifluoro-ethoxy)-phenyl]-2-aza-spiro[4.5]decan-1-one] | 20 nM
2 | O=C1N(c2ccc(OCC(F)(F)F)nc2)CC[C@]12CC[C@@](O)(COCC(F)(F)F)CC2 [Example 279, (5α,8α)-8-Hydroxy-8-(2,2,2-trifluoro-ethoxymethyl)-2-[6-(2,2,2-trifluoro-ethoxy)-pyridin-3-yl]-2-aza-spiro[4.5]decan-1-one] | 20 nM
3 | C[C@H](Oc1ccc(N2CC[C@]3(CC[C@](O)(COCC(F)(F)F)CC3)C2=O)cn1)C(F)(F)F [Example 280, (5α,8β)-8-Hydroxy-8-(2,2,2-trifluoro-ethoxymethyl)-2-[6-((S)-2,2,2-trifluoro-1-methyl-ethoxy)-pyridin-3-yl]-2-aza-spiro[4.5]decan-1-one] | 980 nM
4 | C[C@H](Oc1ccc(N2CC[C@]3(CC[C@@](O)(COCC(F)(F)F)CC3)C2=O)cn1)C(F)(F)F [Example 281, (5α,8α)-8-Hydroxy-8-(2,2,2-trifluoro-ethoxymethyl)-2-[6-((S)-2,2,2-trifluoro-1-methyl-ethoxy)-pyridin-3-yl]-2-aza-spiro[4.5]decan-1-one] | 10 nM
5 | C[C@H](Oc1ccc(N2CC[C@]3(CC[C@](O)(COCC(F)(F)F)CC3)C2=O)cc1)C(F)(F)F [Example 282, (5α,8β)-8-Hydroxy-8-(2,2,2-trifluoro-ethoxymethyl)-2-[4-((S)-2,2,2-trifluoro-1-methyl-ethoxy)-phenyl]-2-aza-spiro[4.5]decan-1-one] | 400 nM
6 | C[C@H](Oc1ccc(N2CC[C@]3(CC[C@@](O)(COCC(F)(F)F)CC3)C2=O)cc1)C(F)(F)F [Example 283, (5α,8α)-8-Hydroxy-8-(2,2,2-trifluoro-ethoxymethyl)-2-[4-((S)-2,2,2-trifluoro-1-methyl-ethoxy)-phenyl]-2-aza-spiro[4.5]decan-1-one] | 10 nM
7 | C[C@@H](Oc1ccc(N2CC[C@]3(CC[C@](O)(COCC(F)(F)F)CC3)C2=O)cc1)C(F)(F)F [Example 284, (5α,8β)-8-Hydroxy-8-(2,2,2-trifluoro-ethoxymethyl)-2-[4-((R)-2,2,2-trifluoro-1-methyl-ethoxy)-phenyl]-2-aza-spiro[4.5]decan-1-one] | 360 nM
8 | C[C@@H](Oc1ccc(N2CC[C@]3(CC[C@@](O)(COCC(F)(F)F)CC3)C2=O)cc1)C(F)(F)F [Example 285, (5α,8α)-8-Hydroxy-8-(2,2,2-trifluoro-ethoxymethyl)-2-[4-((R)-2,2,2-trifluoro-1-methyl-ethoxy)-phenyl]-2-aza-spiro[4.5]decan-1-one] | 10 nM
9 | O=C1N(c2ccc(CC(F)(F)F)cc2)CC[C@]12CC[C@](O)(COCC(F)(F)F)CC2 [Example 286, (5α,8β)-8-Hydroxy-8-(2,2,2-trifluoro-ethoxymethyl)-2-[4-(2,2,2-trifluoro-ethyl)-phenyl]-2-aza-spiro[4.5]decan-1-one] | 190 nM
10 | O=C1N(c2ccc(CC(F)(F)F)cc2)CC[C@]12CC[C@@](O)(COCC(F)(F)F)CC2 [Example 287, (5α,8α)-8-Hydroxy-8-(2,2,2-trifluoro-ethoxymethyl)-2-[4-(2,2,2-trifluoro-ethyl)-phenyl]-2-aza-spiro[4.5]decan-1-one] | 10 nM
11 | O=C1N(c2ccc(C3CC3)cc2)CC[C@]12CC[C@](O)(COCC(F)(F)F)CC2 [Example 288, (5α,8β)-2-(4-Cyclopropyl-phenyl)-8-hydroxy-8-(2,2,2-trifluoro-ethoxymethyl)-2-aza-spiro[4.5]decan-1-one] | 800 nM
12 | O=C1N(c2ccc(C3CC3)cc2)CC[C@]12CC[C@@](O)(COCC(F)(F)F)CC2 [Example 289, (5α,8α)-2-(4-Cyclopropyl-phenyl)-8-hydroxy-8-(2,2,2-trifluoro-ethoxymethyl)-2-aza-spiro[4.5]decan-1-one] | 20 nM
13 | O=C1N(c2ccc(OCC(F)(F)F)cc2)CC[C@]12CC[C@@](O)(COCCC1CC1)CC2 [Example 290, (5α,8α)-8-(2-Cyclopropyl-ethoxymethyl)-8-hydroxy-2-[4-(2,2,2-trifluoro-ethoxy)-phenyl]-2-aza-spiro[4.5]decan-1-one] | 20 nM
14 | CC(C)CCOC[C@]1(O)CC[C@]2(CCN(c3ccc(OCC(F)(F)F)cc3)C2=O)CC1 [Example 291, (5α,8α)-8-Hydroxy-8-(3-methyl-butoxymethyl)-2-[4-(2,2,2-trifluoro-ethoxy)-phenyl]-2-aza-spiro[4.5]decan-1-one] | 20 nM
15 | CC(OC[C@]1(O)CC[C@]2(CCN(c3ccc(OCC(F)(F)F)cc3)C2=O)CC1)C(F)(F)F (stereo partly drawn) [Example 292, (5α,8α)-8-Hydroxy-2-[4-(2,2,2-trifluoro-ethoxy)-phenyl]-8-(2,2,2-trifluoro-1-methyl-ethoxymethyl)-2-aza-spiro[4.5]decan-1-one] | 10 nM
16 | CSC[C@]1(O)CC[C@]2(CCN(c3ccc(OCC(F)(F)F)cc3)C2=O)CC1 [Example 293, (5α,8α)-8-Hydroxy-8-methylsulfanylmethyl-2-[4-(2,2,2-trifluoro-ethoxy)-phenyl]-2-aza-spiro[4.5]decan-1-one] | 20 nM
17 | CCCSC[C@]1(O)CC[C@]2(CCN(c3ccc(OCC(F)(F)F)cc3)C2=O)CC1 [Example 294, (5α,8α)-8-Hydroxy-8-propylsulfanylmethyl-2-[4-(2,2,2-trifluoro-ethoxy)-phenyl]-2-aza-spiro[4.5]decan-1-one] | 20 nM
18 | O=C1N(c2ccc(OCC(F)(F)F)nc2)CC[C@]12CC[C@@](O)(COCC(F)F)CC2 [Example 295, (5α,8α)-8-(2,2-Difluoro-ethoxymethyl)-8-hydroxy-2-[6-(2,2,2-trifluoro-ethoxy)-pyridin-3-yl]-2-aza-spiro[4.5]decan-1-one] | 40 nM
19 | C[C@H](Oc1ccc(N2CC[C@]3(CC[C@](O)(COCC(F)F)CC3)C2=O)cn1)C(F)(F)F [Example 296, (5α,8β)-8-(2,2-Difluoro-ethoxymethyl)-8-hydroxy-2-[6-((S)-2,2,2-trifluoro-1-methyl-ethoxy)-pyridin-3-yl]-2-aza-spiro[4.5]decan-1-one] | 550 nM
20 | C[C@H](Oc1ccc(N2CC[C@]3(CC[C@@](O)(COCC(F)F)CC3)C2=O)cn1)C(F)(F)F [Example 297, (5α,8α)-8-(2,2-Difluoro-ethoxymethyl)-8-hydroxy-2-[6-((S)-2,2,2-trifluoro-1-methyl-ethoxy)-pyridin-3-yl]-2-aza-spiro[4.5]decan-1-one] | 20 nM
21 | C[C@H](Oc1ccc(N2CC[C@]3(CC[C@](O)(COCC(F)F)CC3)C2=O)cc1)C(F)(F)F [Example 298, (5α,8β)-8-(2,2-Difluoro-ethoxymethyl)-8-hydroxy-2-[4-((S)-2,2,2-trifluoro-1-methyl-ethoxy)-phenyl]-2-aza-spiro[4.5]decan-1-one] | 590 nM
22 | C[C@H](Oc1ccc(N2CC[C@]3(CC[C@@](O)(COCC(F)F)CC3)C2=O)cc1)C(F)(F)F [Example 299, (5α,8α)-8-(2,2-Difluoro-ethoxymethyl)-8-hydroxy-2-[4-((S)-2,2,2-trifluoro-1-methyl-ethoxy)-phenyl]-2-aza-spiro[4.5]decan-1-one] | 10 nM
23 | C[C@@H](Oc1ccc(N2CC[C@]3(CC[C@](O)(COCC(F)F)CC3)C2=O)cc1)C(F)(F)F [Example 300, (5α,8β)-8-(2,2-Difluoro-ethoxymethyl)-8-hydroxy-2-[4-((R)-2,2,2-trifluoro-1-methyl-ethoxy)-phenyl]-2-aza-spiro[4.5]decan-1-one] | 300 nM
24 | C[C@@H](Oc1ccc(N2CC[C@]3(CC[C@@](O)(COCC(F)F)CC3)C2=O)cc1)C(F)(F)F [Example 301, (5α,8α)-8-(2,2-Difluoro-ethoxymethyl)-8-hydroxy-2-[4-((R)-2,2,2-trifluoro-1-methyl-ethoxy)-phenyl]-2-aza-spiro[4.5]decan-1-one] | 10 nM
25 | O=C1N(c2ccc(CC(F)(F)F)cc2)CC[C@]12CC[C@](O)(COCC(F)F)CC2 [Example 302, (5α,8β)-8-(2,2-Difluoro-ethoxymethyl)-8-hydroxy-2-[4-(2,2,2-trifluoro-ethyl)-phenyl]-2-aza-spiro[4.5]decan-1-one] | 510 nM
